The test concerns RS4; 11 with G101V mutation. In words: In vitro anti-proliferation assay (ATPlite luminescence) in BCL-2-dependent ALL cell line RS4;11 with G101V mutation. The format is cell-based. To be noted: read-out: RS411-G101V IC50. An outline of the steps:
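RS4;11 G101V cells at about 1×10^4 per well were exposed to a range of compound concentrations for about 72 h in medium with 10% FBS. Cellular ATP was measured by ATPlite luminescence after lysis, and IC50 was derived from the dose-response.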

The mark [1] stands for this setting: cellular anti-proliferative IC50, about 72 hours, medium with 10% FBS, ATPlite.

Read-outs that look alike come from different tables or passages of the source.

For orientation: IC50 means the concentration needed to halve the response being measured.

As for `COc1cc(CN2CCN(C3CC4(CCN(c5ccc(C(=O)NS(=O)(=O)c6cc7c(c([N+](=O)[O-])c6)N[C@@H](C6CCOCC6)CO7)c(N6c7cc8cc[nH]c8nc7O[C@H]7COCC[C@@H]76)c5)CC4)C3)[C@H](c3ccccc3C)C2)cnc1N1CCOCC1` [Example 142, 4-(2-((R)-4-((5-methoxy-6-morpholinopyridin-3-yl)methyl)-2-(o-tolyl)piperazin-1-yl)-7-azaspiro[3.5]nonan-7-yl)-N—(((S)-5-nitro-3-(tetrahydro-2H-pyran-4-yl)-3,4-dihydro-2H-benzo[b][1,4]oxazin-7-yl)sulfonyl)-2-((5aS,9aR)-6,7,9,9a-tetrahydro-1H-pyrano[3,4-b]pyrrolo[3′,2′:5,6]pyrido[3,2-e][1,4]oxazin-5(5aH)-yl)benzamide], the half-inhibitory concentration (IC50) (Homo sapiens, RS4-11, 72 h) was found to be 8 nM.

Take `COc1cc(CN2CCN(C3CC4(CCN(c5ccc(C(=O)NS(=O)(=O)c6cc7c(c([N+](=O)[O-])c6)N[C@H](C6CCOCC6)CO7)c(N6c7cc8cc[nH]c8nc7O[C@H]7COCC[C@@H]76)c5)CC4)C3)[C@H](c3ccccc3C)C2)cnc1N1CCOCC1` [Example 143, 4-(2-((R)-4-((5-methoxy-6-morpholinopyridin-3-yl)methyl)-2-(o-tolyl)piperazin-1-yl)-7-azaspiro[3.5]nonan-7-yl)-N-(((R)-5-nitro-3-(tetrahydro-2H-pyran-4-yl)-3,4-dihydro-2H-benzo[b][1,4]oxazin-7-yl)sulfonyl)-2-((5aS,9aR)-6,7,9,9a-tetrahydro-1H-pyrano[3,4-b]pyrrolo[3′,2′:5,6]pyrido[3,2-e][1,4]oxazin-5(5aH)-yl)benzamide]: the IC50 (Homo sapiens, RS4-11, 72 h) stood at 7 nM.

Take `COc1cc(CN2CCN(C3CC4(CCN(c5ccc(C(=O)NS(=O)(=O)c6ccc(NCC7CCOCC7)c([N+](=O)[O-])c6)c(N6c7cc8cc[nH]c8nc7O[C@H]7COCC[C@@H]76)c5)CC4)C3)[C@@H](c3ccccc3OC(C)C)C2)cnc1N1CCOCC1` [Example 144, 4-(2-((S)-2-(2-isopropoxyphenyl)-4-((5-methoxy-6-morpholinopyridin-3-yl)methyl)piperazin-1-yl)-7-azaspiro[3.5]nonan-7-yl)-N-((3-nitro-4-(((tetrahydro-2H-pyran-4-yl)methyl)amino)phenyl)sulfonyl)-2-((5aS,9aR)-6,7,9,9a-tetrahydro-1H-pyrano[3,4-b]pyrrolo[3′,2′:5,6]pyrido[3,2-e][1,4]oxazin-5(5aH)-yl)benzamide]: the IC50 (Homo sapiens, RS4-11, 72 h) is 7.3 nM.

Take `Cc1ccccc1[C@@H]1CN(Cc2cnc(N3CCOCC3)c(OC(C)C)c2)CCN1C1CC2(CCN(c3ccc(C(=O)NS(=O)(=O)c4ccc(NCC5CCC(C)(O)CC5)c([N+](=O)[O-])c4)c(N4c5cc6cc[nH]c6nc5O[C@H]5COCC[C@@H]54)c3)CC2)C1` (stereo partly drawn) [Example 145, 2-[(3R,8S)-2,5-dioxa-9,15,17-triazatetracyclo[8.7.0.0^{3,8}.0^{12,16}]heptadeca-1(10),11,13,16-tetraen-9-yl]-4-{2-[(2R)-4-{[5-isopropoxy-6-(morpholin-4-yl)pyridin-3-yl]methyl}-2-(2-methylphenyl)piperazin-1-yl]-7-azaspiro[3.5]nonan-7-yl}-N-[3-nitro-4-({[(1r,4r)-4-hydroxy-4-methylcyclohexyl]methyl}amino)benzenesulfonyl]benzamide]: the IC50 under setting [1] stood at 6.1 nM.

Turning to `Cc1cc2c(CN3CCN(C4CC5(CCN(c6ccc(C(=O)NS(=O)(=O)c7ccc(NCC8CCC(C)(O)CC8)c([N+](=O)[O-])c7)c(N7c8cc9cc[nH]c9nc8O[C@H]8COCC[C@@H]87)c6)CC5)C4)[C@H](c4ccccc4C)C3)cnc(N3CCOCC3)c2o1` (stereo partly drawn) [Example 146, 2-[(3R,8S)-2,5-dioxa-9,15,17-triazatetracyclo[8.7.0.0^{3,8}.0^{12,16}]heptadeca-1(10),11,13,16-tetraen-9-yl]-4-{2-[(2R)-4-{[2-methyl-7-(morpholin-4-yl)furo[2,3-c]pyridin-4-yl]methyl}-2-(2-methylphenyl)piperazin-1-yl]-7-azaspiro[3.5]nonan-7-yl}-N-[3-nitro-4-({[(1r,4r)-4-hydroxy-4-methylcyclohexyl]methyl}amino)benzenesulfonyl]benzamide], the IC50 under setting [1] amounted to 8.2 nM.

With `Cc1cc2c(CN3CCN(C4CC5(CCN(c6ccc(C(=O)NS(=O)(=O)c7ccc(NCC8CCC(C)(O)CC8)c([N+](=O)[O-])c7)c(N7c8cc9cc[nH]c9nc8O[C@H]8COCC[C@@H]87)c6)CC5)C4)[C@@H](c4ccccc4OC(C)C)C3)cnc(N3CCOCC3)c2o1` (stereo partly drawn) [Example 147, 2-[(3R,8S)-2,5-dioxa-9,15,17-triazatetracyclo[8.7.0.0^{3,8}.0^{12,16}]heptadeca-1(10),11,13,16-tetraen-9-yl]-4-{2-[(2S)-2-(2-isopropoxyphenyl)-4-{[2-methyl-7-(morpholin-4-yl)furo[2,3-c]pyridin-4-yl]methyl}piperazin-1-yl]-7-azaspiro[3.5]nonan-7-yl}-N-[3-nitro-4-({[(1r,4r)-4-hydroxy-4-methylcyclohexyl]methyl}amino)benzenesulfonyl]benzamide], under setting [1], the concentration for half-maximal inhibition (IC50) came to 31.9 nM.

With `Cc1ccccc1[C@@H]1CN(Cc2ccnc3c2OCC(C)(C)O3)CCN1C1CC2(CCN(c3ccc(C(=O)NS(=O)(=O)c4ccc(NCC5CCC(C)(O)CC5)c([N+](=O)[O-])c4)c(N4c5cc6cc[nH]c6nc5O[C@H]5COCC[C@@H]54)c3)CC2)C1` (stereo partly drawn) [Example 148, 4-(2-((R)-4-((3,3-dimethyl-2,3-dihydro-[1,4]dioxino[2,3-b]pyridin-8-yl)methyl)-2-(o-tolyl)piperazin-1-yl)-7-azaspiro[3.5]nonan-7-yl)-N-((4-((((1r,4r)-4-hydroxy-4-methylcyclohexyl)methyl)amino)-3-nitrophenyl)sulfonyl)-2-((5aS,9aR)-6,7,9,9a-tetrahydro-1H-pyrano[3,4-b]pyrrolo[3′,2′:5,6]pyrido[3,2-e][1,4]oxazin-5(5aH)-yl)benzamide], the IC50 under setting [1] amounted to 6.3 nM.

On to `COc1cc(CN2CCN(C3CC4(CCN(c5ccc(C(=O)NS(=O)(=O)c6ccc(NCC7CCC(C)(O)CC7)c([N+](=O)[O-])c6)c(N6c7cc8cc[nH]c8nc7O[C@H]7COCC[C@@H]76)c5)CC4)C3)[C@@H](c3ccccc3C)C2)cnc1OC` (stereo partly drawn) [Example 149, 4-(2-((S)-4-((5,6-dimethoxypyridin-3-yl)methyl)-2-(o-tolyl)piperazin-1-yl)-7-azaspiro[3.5]nonan-7-yl)-N-((4-((((1r,4r)-4-hydroxy-4-methylcyclohexyl)methyl)amino)-3-nitrophenyl)sulfonyl)-2-((5aS,9aR)-6,7,9,9a-tetrahydro-1H-pyrano[3,4-b]pyrrolo[3′,2′:5,6]pyrido[3,2-e][1,4]oxazin-5(5aH)-yl)benzamide], for which, under setting [1], the IC50 came to 28.3 nM.

For `COc1nccc(CN2CCN(C3CC4(CCN(c5ccc(C(=O)NS(=O)(=O)c6ccc(NCC7CCC(C)(O)CC7)c([N+](=O)[O-])c6)c(N6c7cc8cc[nH]c8nc7O[C@H]7COCC[C@@H]76)c5)CC4)C3)[C@@H](c3ccccc3OC(C)C)C2)c1OC` (stereo partly drawn) [Example 150, 4-(2-((S)-4-((2,3-dimethoxypyridin-4-yl)methyl)-2-(2-isopropoxyphenyl)piperazin-1-yl)-7-azaspiro[3.5]nonan-7-yl)-N-((4-((((1r,4r)-4-hydroxy-4-methylcyclohexyl)methyl)amino)-3-nitrophenyl)sulfonyl)-2-((5aS,9aR)-6,7,9,9a-tetrahydro-1H-pyrano[3,4-b]pyrrolo[3′,2′:5,6]pyrido[3,2-e][1,4]oxazin-5(5aH)-yl)benzamide], the IC50 under setting [1] amounted to 14.1 nM.

As for `COc1c(CN2CCN(C3CC4(CCN(c5ccc(C(=O)NS(=O)(=O)c6ccc(NCC7CCC(C)(O)CC7)c([N+](=O)[O-])c6)c(N6c7cc8cc[nH]c8nc7O[C@H]7COCC[C@@H]76)c5)CC4)C3)[C@@H](c3ccccc3OC(C)C)C2)ccnc1N1CCOCC1` (stereo partly drawn) [Example 151, N-((4-((((1r,4r)-4-hydroxy-4-methylcyclohexyl)methyl)amino)-3-nitrophenyl)sulfonyl)-4-(2-((S)-2-(2-isopropoxyphenyl)-4-((3-methoxy-2-morpholinopyridin-4-yl)methyl)piperazin-1-yl)-7-azaspiro[3.5]nonan-7-yl)-2-((5aS,9aR)-6,7,9,9a-tetrahydro-1H-pyrano[3,4-b]pyrrolo[3′,2′:5,6]pyrido[3,2-e][1,4]oxazin-5(5aH)-yl)benzamide], the IC50 under setting [1] was found to be 19.8 nM.

As to `CC(C)Oc1ccccc1[C@H]1CN(Cc2ccc3c(c2)OCCO3)CCN1C1CC2(CCN(c3ccc(C(=O)NS(=O)(=O)c4ccc(NCC5CCC(C)(O)CC5)c([N+](=O)[O-])c4)c(N4c5cc6cc[nH]c6nc5O[C@H]5COCC[C@@H]54)c3)CC2)C1` (stereo partly drawn) [Example 152, 4-(2-((S)-4-((2,3-dihydrobenzo[b][1,4]dioxin-6-yl)methyl)-2-(2-isopropoxyphenyl)piperazin-1-yl)-7-azaspiro[3.5]nonan-7-yl)-N-((4-((((1r,4r)-4-hydroxy-4-methylcyclohexyl)methyl)amino)-3-nitrophenyl)sulfonyl)-2-((5aS,9aR)-6,7,9,9a-tetrahydro-1H-pyrano[3,4-b]pyrrolo[3′,2′:5,6]pyrido[3,2-e][1,4]oxazin-5(5aH)-yl)benzamide], the IC50 under setting [1] amounted to 28.3 nM.

For the compound `CC(C)Oc1ccccc1[C@H]1CN(Cc2ccc(N3CCOC[C@H]3C)c(F)c2)CCN1C1CC2(CCN(c3ccc(C(=O)NS(=O)(=O)c4ccc(NCC5CCC(C)(O)CC5)c([N+](=O)[O-])c4)c(N4c5cc6cc[nH]c6nc5O[C@H]5COCC[C@@H]54)c3)CC2)C1` (stereo partly drawn) [Example 153, 2-[(3R,8S)-2,5-dioxa-9,15,17-triazatetracyclo[8.7.0.0^{3,8}.0^{12,16}]heptadeca-1(10),11,13,16-tetraen-9-yl]-4-{2-[(2S)-4-({3-fluoro-4-[(3R)-3-methylmorpholin-4-yl]phenyl}methyl)-2-(2-isopropoxyphenyl)piperazin-1-yl]-7-azaspiro[3.5]nonan-7-yl}-N-[3-nitro-4-({[(1r,4r)-4-hydroxy-4-methylcyclohexyl]methyl}amino)benzenesulfonyl]benzamide], the IC50 under setting [1] was 47.1 nM.
